Measured values from EP0072121A1, “Beta-lactam antibiotics” (BEECHAM GROUP PLC, priority 1981, dated 1983).
Values after ≈ are worked out from the molar mass of the structure shown.

Legend:
Assay in all cases: standard MIC test
Type in all cases: cell-based
Bacillus subtilis A = system: Bacillus subtilis A
Text: (§1) In a standard MIC test the compound of Examples 1 and 2 afforded the following data (µg/ml).

Escherichia coli JT20 = system: Escherichia coli JT20
Text: as §1

[1] = system: Escherichia coli O111 [E8]
Text: as §1

[2] = system: Staphylococcus aureus Russell MB9
Text: as §1

[3] = system: Staphylococcus aureus 1517
Text: as §1

Escherichia coli ESS = system: Escherichia coli ESS
Text: as §1

Proteus rettgeri WM16 = settings: Providencia rettgeri
Text: as §1

Escherichia coli JT410 = system: Escherichia coli JT410
Text: as §1

[4] = system: Klebsiella aerogenes A [T767]
Text: as §1

Proteus vulgaris W091 = system: Proteus vulgaris W091
Text: as §1

[5] = system: Staphylococcus aureus Oxford
Text: as §1

Streptocuccus faecalis I = system: Streptocuccus faecalis I
Text: as §1

[6] = system: Escherichia coli JT39 [E96]
Text: as §1

[7] = system: Streptococcus pneumoniae CN33
Text: as §1

[8] = system: Proteus mirabilis 977 [13]
Text: as §1

[9] = system: Enterobacter cloacae N1 [T753]
Text: as §1

Proteus morganii 1580 = settings: Morganella morganii
Text: as §1

[10] = system: Salmonella typhimurium CT10; settings: Salmonella enterica
Text: as §1

Citrobacter freundii E8 = system: Citrobacter freundii E8
Text: as §1

[11] = system: Streptocuccus pyogenes CN10
Text: as §1

Pseudomonas Dalgleish = system: Pseudomonas Dalgleish
Text: as §1

[12] = system: Pseudomonas aeruginosa A [11]
Text: as §1

[13] = system: Klebsiella aerogenes Ba95
Text: as §1

Shigella sonnei MB11967 = system: Shigella sonnei MB11967
Text: as §1

Compound | MIC (Bacillus subtilis A) [µg/mL] | MIC (Escherichia coli JT20) [µg/mL] | MIC [1] [µg/mL] | MIC [2] [µg/mL] | MIC [3] [µg/mL] | MIC (Escherichia coli ESS) [µg/mL] | MIC (Proteus rettgeri WM16) [µg/mL] | MIC (Escherichia coli JT410) [µg/mL] | MIC [4] [µg/mL] | MIC (Proteus vulgaris W091) [µg/mL] | MIC [5] [µg/mL] | MIC (Streptocuccus faecalis I) [µg/mL] | MIC [6] [µg/mL] | MIC [8] [µg/mL] | MIC [9] [µg/mL] | MIC (Proteus morganii 1580) [µg/mL] | MIC [10] [µg/mL] | MIC (Citrobacter freundii E8) [µg/mL] | MIC (Pseudomonas Dalgleish) [µg/mL] | MIC [12] [µg/mL] | also measured
CC(=N)NCCOC(=O)/C=C\SC1=C(C(=O)O)N2C(=O)[C@@H]([C@H](C)O)[C@H]2C1 [Ex.1, (5R,6R)-3-[(Z)-2-Acetimidoylaminoethyloxycarbonyl-ethenylthio]-6-[(S)-1-hydroxyethyl]-7-oxo-1-azabicyclo[3.2.0]hept-2-ene-2-carboxylic acid] | ≤ 0.1 | 3.1 (≈ 8.09 µM) | 0.2 (≈ 0.522 µM) | ≤ 0.1 | 0.8 (≈ 2.09 µM) | ≤ 0.1 | 1.6 (≈ 4.17 µM) | 0.2 (≈ 0.522 µM) | 0.2 (≈ 0.522 µM) | 3.1 (≈ 8.09 µM) | ≤ 0.1 | ≤ 0.1 | 0.2 (≈ 0.522 µM) | 0.4 (≈ 1.04 µM) | 3.1 (≈ 8.09 µM) | 1.6 (≈ 4.17 µM) | 0.2 (≈ 0.522 µM) | 0.4 (≈ 1.04 µM) | 25 (≈ 65.2 µM) | 25 (≈ 65.2 µM) | MIC [7]: ≤ 0.1 µg/mL; MIC [11]: ≤ 0.1 µg/mL; MIC [13]: 3.1 µg/mL (≈ 8.09 µM); MIC (Shigella sonnei MB11967): 0.2 µg/mL (≈ 0.522 µM)
CC(=N)NCCOC(=O)/C=C\SC1=C(C(=O)O)N2C(=O)[C@H]([C@@H](C)O)[C@H]2C1 [Ex.2, (5R,6S)-3-[(S)-2-Acetimidoylaminoethyloxycarbonyl-ethenylthio]-6-[(R)-1-hydroxyethyl]-7-oxo-1-azabicyclo [3.2.0]hept-2-ene-2-carboxylic acid] | < 0.1 | 0.2 (≈ 0.522 µM) | 0.2 (≈ 0.522 µM) | ≤ 0.1 | 1.6 (≈ 4.17 µM) | 0.2 (≈ 0.522 µM) | 0.8 (≈ 2.09 µM) | 0.2 (≈ 0.522 µM) | 0.2 (≈ 0.522 µM) | 0.8 (≈ 2.09 µM) | ≤ 0.1 | 0.2 (≈ 0.522 µM) | 0.2 (≈ 0.522 µM) | 0.8 (≈ 2.09 µM) | 0.8 (≈ 2.09 µM) | 1.6 (≈ 4.17 µM) | 0.2 (≈ 0.522 µM) | 0.4 (≈ 1.04 µM) | 25 (≈ 65.2 µM) | 25 (≈ 65.2 µM) | MIC [13]: 0.4 µg/mL (≈ 1.04 µM); MIC (Shigella sonnei MB11967): 0.2 µg/mL (≈ 0.522 µM)
